In ChEMBL document CHEMBL1144164, “Carbonic anhydrase inhibitors: inhibition of the beta-class enzymes from the fungal pathogens Candida albicans and Cryptococcus neoformans with simple anions” (Bioorg Med Chem Lett, 2008) one finds Kinact data, which are given here for 1 compound.

Assay [1] has as its target Carbonic anhydrase 1 (Homo sapiens) (UniProt P00915).
Description: Inhibition of human carbonic anhydrase 1 at 20 degC by CO2 hydration method
Assay [2] relates to Cryptococcus neoformans.
Description: Inhibition of Cryptococcus neoformans Can2 at 20 degC by CO2 hydration method
The target in assay [3] is Carbonic anhydrase 2 (Homo sapiens) (UniProt P00918).
Description: Inhibition of human carbonic anhydrase 2 at 20 degC by CO2 hydration method
Assay [4] has as its target T1, Carbonic anhydrase (Methanobacterium thermoautotrophicum) (UniProt Q50565).
T1 sequence (whole entry): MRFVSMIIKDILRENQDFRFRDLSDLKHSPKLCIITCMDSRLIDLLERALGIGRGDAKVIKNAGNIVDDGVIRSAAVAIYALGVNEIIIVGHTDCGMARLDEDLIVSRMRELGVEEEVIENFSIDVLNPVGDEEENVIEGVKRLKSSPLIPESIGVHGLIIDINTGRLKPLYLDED
Particulars: Methanothermobacter thermautotrophicus.
Description: Inhibition of Methanobacterium thermoautotrophicum Cab at 20 degC by CO2 hydration method

Chain of Carbonic anhydrase 1 (Homo sapiens) (P00915 2-261 limits assumed): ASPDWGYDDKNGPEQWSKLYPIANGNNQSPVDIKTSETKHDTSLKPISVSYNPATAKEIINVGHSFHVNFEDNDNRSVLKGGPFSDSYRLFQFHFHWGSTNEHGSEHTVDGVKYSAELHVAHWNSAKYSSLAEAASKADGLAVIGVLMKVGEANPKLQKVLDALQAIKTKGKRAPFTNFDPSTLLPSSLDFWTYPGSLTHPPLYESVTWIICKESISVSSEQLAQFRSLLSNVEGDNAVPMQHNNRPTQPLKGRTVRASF

On to `NS(=O)(=O)O`, for which the Kinact came to 0.021 mM in assay [1], 8.22 mM in assay [2], 0.39 mM in assay [3] and 44 mM in assay [4].
